Assay results taken from paper PMC7114444 (Virus Research, 2014).
Entries after “also recorded” stand apart in the source; their conditions may differ.

Key:
[1] = test system: HCoV-NL63 N-protein; experiment: Western blot of N protein expression in HCoV-NL63-infected CaCo-2 cells; assay type: cell-based; conditions: for N-protein expression at 20 μM: 48 h, 20 μM inhibitor
[2] = test system: NFAT3-GFP; experiment: NFAT-GFP nuclear translocation assay; assay type: cell-based; conditions: HeLa cells, 40 nM drug, 2 μM ionomycin
[3] = test system: HCoV-NL63; experiment: HCoV-NL63 replication in Caco-2 cells, qPCR of genome equivalents; assay type: cell-based; conditions: Human coronavirus NL63, Caco-2, 48 h, read-out: Inhibition of HCoV-NL63 in CaCo-2 EC50
[4] = test system: lymphocyte; conditions: lymphocyte proliferation assays, ref Sadeg et al., 1993a, 1993b; cited from earlier work

| Compound | N-protein expression at 20 μM [1] | concentration above which N protein is not detectable any more ([1]; discussion statement) | NFAT-GFP nuclear translocation [2] | EC50 [3] | concentration at which N protein decreased ([1]; discussion statement) | immunosuppressive activity relative to CsA activity [4] |
| --- | --- | --- | --- | --- | --- | --- |
| C/C=C/C[C@@H](C)[C@@H](O)[C@H]1C(=O)N[C@@H](CC)C(=O)N(C)CC(=O)N(C)[C@@H]([C@@H](C)CC)C(=O)N[C@@H](C(C)C)C(=O)N(C)[C@@H](CC(C)C)C(=O)N[C@@H](C)C(=O)N[C@H](C)C(=O)N(C)[C@@H](CC(C)C)C(=O)N(C)[C@@H](CC(C)C)C(=O)N(C)[C@@H](C(C)C)C(=O)N1C [NIM811] | not detectable any more | above 5 μM | allow NFAT-GFP translocation to the nucleus; also recorded: NFAT migrated to the nucleus | 800 nM |  |  |
| C/C=C/C[C@@H](C)[C@@H](O)[C@H]1C(=O)N[C@@H](CC)C(=O)N(C)[C@H](C)C(=O)N(CC)[C@@H](C(C)C)C(=O)N[C@@H](C(C)C)C(=O)N(C)[C@@H](CC(C)C)C(=O)N[C@@H](C)C(=O)N[C@H](C)C(=O)N(C)[C@@H](CC(C)C)C(=O)N(C)[C@@H](CC(C)C)C(=O)N(C)[C@@H](C(C)C)C(=O)N1C [ALV, Alisporivir] | not detectable any more | above 5 μM | allow NFAT-GFP translocation to the nucleus; also recorded: NFAT migrated to the nucleus | 800 nM | 1.25 µM |  |
| C/C=C/C[C@@H](C)[C@@H](O)[C@H]1C(=O)N[C@@H](C(C)C)C(=O)N(C)CC(=O)N(C)[C@@H](CC(C)C)C(=O)N[C@@H](C(C)C)C(=O)N(C)[C@@H](CC(C)C)C(=O)N[C@@H](C)C(=O)N[C@H](C)C(=O)N(C)[C@@H](CC(C)C)C(=O)N(C)[C@@H](CC(C)C)C(=O)N(C)[C@@H](C(C)C)C(=O)N1C [CsD] |  |  | NFAT is not transferred to the nucleus; also recorded: showed the same behavior as CsA; also recorded: remained in the cytoplasm |  |  | about 10% |
| C=CC[C@@H]1/C=C(\C)C[C@H](C)C[C@H](OC)[C@H]2O[C@@](O)(C(=O)C(=O)N3CCCC[C@H]3C(=O)O[C@H](/C(C)=C/[C@@H]3CC[C@@H](O)[C@H](OC)C3)[C@H](C)[C@@H](O)CC1=O)[C@H](C)C[C@@H]2OC [FK506] |  |  | NFAT is not transferred to the nucleus; also recorded: remained in the cytoplasm | 6600 nM |  |  |
